In patent US20240246984A1, “HETEROCYCLIC JAK INHIBITOR” (BEIJING INNOCARE PHARMA TECH CO., LTD., priority 2020, published 2024) one finds IC50 data, which are given here for 13 molecules.

Structures are written as SMILES.

Assay [1] concerns the target human recombinant TYK2 protein (Homo sapiens, UniProt P29597). In words: TYK2 activity inhibition assay (HTRF kinase detection). The note with it: 11.25 μM ATP substrate solution. The class given is biochemical. Here is the method: The effect of the compounds of the present invention on the activity of TYK2 was assessed by using an in vitro kinase detection assay.
The enzymatic activity of TYK2 was assessed by detecting the substrate phosphorylation level in a kinase reaction with a homogeneous time-resolved fluorescence (HTRF) kinase detection kit (Cisbio, 62TK0PEC). A reaction buffer contained an enzyme buffer (1×), 5 mM MgCl2, 1 mM DTT and 0.01% Brij35 from the kit; a human recombinant TYK2 protein (Carna Biosciences, 08-147) was diluted to a kinase reaction solution of 0.25 ng/μL with the reaction buffer; a substrate reaction solution contained 11.25 μM ATP and a biotin-labeled tyrosine kinase substrate diluted to 0.5 μM with the reaction buffer; a detection buffer contained 0.1 ng/μL Eu^3+ labeled cage antibody (Cisbio, 61T66KLB) and 25 nM streptavidin-labeled XL665 (Cisbio, 610SAXLB) in the reaction buffer; the compound was dissolved to 10 μM in DMSO, followed by a serial 4-fold dilution with DMSO to a minimum concentration of 0.061 nM. Each concentration was further diluted 40-fold with the reaction buffer. To a 384-well assay plate (Corning, 3674) were added 4 μL of the compound solutions having a series of concentrations and 2 μL of kinase reaction solutions. After being mixed evenly, the mixtures were incubated at room temperature for 15 minutes, and then 4 μL of the substrate reaction solutions were added. The reaction mixtures were incubated at room temperature for 40 minutes. Then the reaction mixtures were added with 10 μL of detection solutions, mixed evenly, and allowed to stand at room temperature for 30 minutes. An Envision plate reader (Perkin Elmer) was then used to measure the progress of the reaction at wavelengths of 620 nm and 665 nm. The signal value (absorbance at 665 nm/absorbance at 620 nm) was positively correlated with the degree of substrate phosphorylation, therefore the kinase activity of TYK2 was detected. In this assay, the group without TYK2 kinase protein was the 100% inhibition group, and the group with TYK2 kinase protein but without the test compound was the 0% inhibition group. The compound inhibition curve was plotted using XLfit software and the IC50 of its inhibition was calculated.

Assay [2] deals with human recombinant JAK2 protein (Homo sapiens, UniProt O60674). The assay can be described thus: JAK2 activity inhibition assay (HTRF kinase detection). The class given is biochemical. The note with it: 2.5 μM ATP substrate solution. The procedure: The effect of the compounds of the present invention on the activity of JAK2 was assessed by using an in vitro kinase detection assay.
The enzymatic activity of JAK2 was assessed by detecting the substrate phosphorylation level in a kinase reaction with a homogeneous time-resolved fluorescence (HTRF) kinase detection kit (Cisbio, 62TK0PEC). A reaction buffer contained an enzyme buffer (1×), 5 mM MgCl2, 1 mM DTT and 0.01% Brij35 from the kit; a human recombinant JAK2 protein (Carna Biosciences, 08-045) was diluted to a kinase reaction solution of 0.15 ng/μL with the reaction buffer; a substrate reaction solution contained 2.5 μM ATP and a biotin-labeled tyrosine kinase substrate diluted to 0.25 μM with the reaction buffer; a detection buffer contained 0.1 ng/μL Eu^3+ labeled cage antibody (Cisbio, 61T66KLB) and 12.5 nM streptavidin-labeled XL665 (Cisbio, 610SAXLB) in the reaction buffer; the compound was dissolved to 10 μM in DMSO, followed by a serial 4-fold dilution with DMSO to a minimum concentration of 0.061 nM. Each concentration was further diluted 40-fold with the reaction buffer. To a 384-well assay plate (Corning, 3674) were added 4 μL of the compound solutions having a series of concentrations and 2 μL of JAK2 kinase reaction solutions. After being mixed evenly, the mixtures were incubated at room temperature for 15 minutes, and then 4 μL of the substrate reaction solutions were added. The reaction mixtures were incubated at room temperature for 30 minutes. Then the reaction mixtures were added with 10 μL of detection solutions, mixed evenly, and allowed to stand at room temperature for 30 minutes. An Envision plate reader (Perkin Elmer) was then used to measure the progress of the reaction at wavelengths of 620 nm and 665 nm. The signal value (absorbance at 665 nm/absorbance at 620 nm) was positively correlated with the degree of substrate phosphorylation, therefore the kinase activity of JAK2 was detected. In this assay, the group without JAK2 kinase protein was the 100% inhibition group, and the group with JAK2 kinase protein but without the test compound was the 0% inhibition group. The compound inhibition curve was plotted using XLfit software and the IC50 of its inhibition was calculated.
In general terms: Time-resolved FRET reads energy transfer from a long-lived donor to a nearby acceptor.

Assay [3] deals with IL-12-induced IFN-γ secretion in NK92 cells. The assay can be described thus: Inhibition of IL-12-induced IFN-γ secretion in NK92 cells (ELISA). The class given is cell-based. As to conditions: Homo sapiens, IL-12 stimulation, 24 hours, read-out: IC50 (NK92IL12/IFN-γ). Here is the method: The effect of the compounds of the present invention on IFN-γ secretion in IL-12-induced NK92 cells was evaluated by an enzyme-linked immunosorbent assay (ELISA).
The assay principle was generally described below: IL-12R was mainly expressed in activated T-cells, NK cells (NK92 was an NK cell line), DC cells, and B-cells. When binding to IL-12, it activated the JAK2/TYK2 signal transduction pathway within NK cells and activated T lymphocytes, thereby inducing secretion of IFN-γ.
The compound was dissolved to 2.5 mM in DMSO, followed by a serial 4-fold dilution with DMSO to a minimum concentration of 0.31 μM. Each concentration was further diluted 50-fold with an FBS-free MEMα medium (Thermofisher. 12561-056).
NK92 cells (Nanjing Cobioer, CBP60980) were cultured in a complete MEMα medium containing 12.5% FBS (Ausbian, VS500T), 12.5% horse serum (Thermofisher, 16050-122), 0.02 mM folic acid (Sigma, F8758), 0.2 mM inositol (Sigma, 17850), 0.55 mM β-mercaptoethanol (Thermofish, 21985-023), 200 U/mL IL-2 (R&D Systems, 202-1L), and 100 U/mL penicillin-streptomycin mixed liquor (ThermoFisher, 15140122). When covering 80-90% of the culture container surface, the cells were dispersed and plated on a 96-well plate (ThermoFisher, 167425) with 100,000 cells per well (80 μL of the complete MEMα medium without IL-2). The 96-well plate was then incubated overnight in a 37° C., 5% CO2 incubator.
After overnight incubation, 10 μL of the compound and 10 μL of 50 ng/ml IL-12 (R &D Systems, 219-1L) were added to each well and mixed gently, and the 96-well plate was incubated in the 37° C., 5% CO2 incubator for additional 24 hours. The plate was centrifuged at 800 rpm for 10 minutes at room temperature and 50 μL of the supernatant from each well was transferred to another 96-well plate (Sigma, CLS3695) coated with anti-IFN-γ antibody. The amount of IFN-γ secretion was detected following the instruction from the Human IFN-γ DuoSet ELISA assay kit (R & D Systems, DY285B). In this assay, the group in which IL-12 and the test compound were replaced with the MEMα medium was the non-stimulated control group (100% inhibition), and the group with IL-12 and 0.2% DMSO was the stimulated control group (0% inhibition). The compound inhibition curve was plotted using XLfit software and the IC50 of its inhibition was calculated.
For orientation: ELISA stands for enzyme-linked immunosorbent assay.

`CS(=O)(=O)c1ccc(Nc2nc(-c3c(F)cccc3F)n3cc[nH]c(=O)c23)cc1` [Compound 11, 3-(2,6-difluorophenyl)-1-((4-(methylsulfonyl)phenyl)amino)imidazo[1,5-a]pyrazin-8(7H)-one]: the IC50 in assay [1] was 4 nM; in assay [2], 1.4 nM; in assay [3], 242 nM.
In the case of `CS(=O)(=O)c1ccc(Nc2nc(-c3c(F)cccc3F)n3c2C(=O)NCC3)cc1` [Compound 12, 3-(2,6-difluorophenyl)-1-((4-(methylsulfonyl)phenyl)amino)-6,7-dihydroimidazo[1,5-a]pyrazin-8(5H)-one], the IC50 stood at 0.9 nM in assay [1], 5.5 nM in assay [2] and 110 nM in assay [3].
As to `CC(C)(C(=O)N1CCC1)c1ccc(Nc2nc(-c3c(F)cccc3F)n3c2C(=O)NCC3)cc1` [Compound 13, 1-((4-(1-(azetidin-1-yl)-2-methyl-1-oxopropan-2-yl)phenyl)amino)-3-(2,6-difluorophenyl)-6,7-dihydroimidazo[1,5-a]pyrazin-8(5H)-one], the IC50 was 0.3 nM in assay [1], 2.2 nM in assay [2] and 1060 nM in assay [3].
On to `O=C(Cc1ccc(Nc2nc(-c3c(F)cccc3F)n3cc[nH]c(=O)c23)cc1)N1CCOCC1` [Compound 14, 3-(2,6-difluorophenyl)-1-((4-(2-morpholino-2-oxoethyl)phenyl)amino)imidazo[1,5-a]pyrazin-8(7H)-one], for which the values for the IC50 in assay [1], in assay [2] and in assay [3] were 0.3 nM, 0.5 nM and 113 nM, respectively.
The like results for `O=C1NCCn2c(-c3c(F)cccc3F)nc(Nc3ccc(CC(=O)N4CCOCC4)cc3)c21` [Compound 16, 3-(2,6-difluorophenyl)-1-((4-(2-morpholino-2-oxoethyl)phenyl)amino)-6,7-dihydroimidazo[1,5-a]pyrazin-8(5H)-one] were, in that order, 2 nM, 4.9 nM and 1440 nM.
Consider `CC(C)(C(=O)N1CCOCC1)c1ccc(Nc2nc(-c3c(F)cccc3F)n3cc[nH]c(=O)c23)cc1` [Compound 17, 3-(2,6-difluorophenyl)-1-((4-(2-methyl-1-morpholino-1-oxopropan-2-yl)phenyl)amino)imidazo[1,5-a]pyrazin-8(7H)-one], for which the IC50 amounted to 0.1 nM in assay [1], 0.3 nM in assay [2] and 520 nM in assay [3].
With `CC(C)(C(=O)N1CCOCC1)c1ccc(Nc2nc(-c3c(F)cccc3F)n3c2C(=O)NCC3)cc1` [Compound 18, 3-(2,6-difluorophenyl)-1-((4-(2-methyl-1-morpholino-1-oxopropan-2-yl)phenyl)amino)-6,7-dihydroimidazo[1,5-a]pyrazin-8(5H)-one], the values for the IC50 in assay [1], in assay [2] and in assay [3] were 0.3 nM, 2.2 nM and 1410 nM, respectively.
In the case of `Cn1cc(Nc2nc(-c3c(F)cccc3Cl)n3cc[nH]c(=O)c23)cn1` [Compound 26, 3-(2-chloro-6-fluorophenyl)-1-((1-methyl-1H-pyrazol-4-yl)amino)imidazo[1,5-a]pyrazin-8(7H)-one], the IC50 in assay [1] was 0.7 nM; in assay [2] it was 2.9 nM; in assay [3], 149 nM.
On the same counts, the results for `NC(=O)c1ccc(Nc2nc(-c3c(F)cccc3F)n3cc[nH]c(=O)c23)cc1` [Compound 27, 4-((3-(2,6-difluorophenyl)-8-oxo-7,8-dihydroimidazo[1,5-a]pyrazin-1-yl)amino)benzamide] are 0.2 nM, 1.4 nM and 60 nM.
On the same counts, the results for `CN1CCN(C(=O)c2ccc(Nc3nc(-c4c(F)cccc4Cl)n4cc[nH]c(=O)c34)cc2)CC1` [Compound 31, 3-(2-chloro-6-fluorophenyl)-1-((4-(4-methylpiperazine-1-carbonyl)phenyl)amino)imidazo[1,5-a]pyrazin-8(7H)-one] are 0.1 nM, 0.6 nM and 56 nM.
Turning to `O=C(c1ccc(Nc2nc(-c3c(F)cccc3Cl)n3cc[nH]c(=O)c23)cc1)N1CCNCC1` [Compound 32, 3-(2-chloro-6-fluorophenyl)-1-((4-(piperazine-1-carbonyl)phenyl)amino)imidazo[1,5-a]pyrazin-8(7H)-one], the values for the IC50 in assay [1], in assay [2] and in assay [3] were 0.1 nM, 0.6 nM and 425 nM, respectively.
On to `CC(C)(C(N)=O)c1ccc(Nc2nc(-c3c(F)cccc3Cl)n3cc[nH]c(=O)c23)cc1` [Compound 33, 2-(4-((3-(2-chloro-6-fluorophenyl)-8-oxo-7,8-dihydroimidazo[1,5-a]pyrazin-1-yl)amino)phenyl)-2-methylpropanamide], for which the IC50 in assay [1] turned out to be 0.1 nM; in assay [2], 0.4 nM; in assay [3], 66 nM.
The like results for `CN1CCN(C(=O)C(C)(C)c2ccc(Nc3nc(-c4c(F)cccc4F)n4cc[nH]c(=O)c34)cc2)CC1` [Compound 35, 3-(2,6-difluorophenyl)-1-((4-(2-methyl-1-(4-methylpiperazin-1-yl)-1-oxopropan-2-yl)phenyl)amino)imidazo[1,5-a]pyrazin-8(7H)-one] were, in that order, 0.4 nM, 0.6 nM and 191 nM.
